What all share (experiment): NCI-60 cell line screen, 48 h
The test system of test [1] is ACHN renal.
Test [2] has as its system K-562 leukemia.
The test system of test [3] is MOLT-4 leukemia.
Test [4] relates to NCI-H226 lung.
Test [5] has as its system OVCAR-3 ovarian.
The subject of test [6] is OVCAR-5 ovarian.
In test [7] the test system is SF-268 CNS.
Test [8] deals with SR leukemia.
Test [9] deals with T-47D breast.
For test [10], the system named is U251 CNS.

Drawing on PubChem BioAssay (NCI), this text covers GI50 and TGI for two compounds.

The structures appear in SMILES notation.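 96-well plates; 48 h exposure; 5 concentrations. Endpoints by linear interpolation between flanking doses. Not reached: highest tested concentration assigned. Here, GI50 denotes the concentration required for 50% inhibition of growth. Definition used: TGI = concentration required for complete inhibition of growth.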

Turning to `COc1ccc(-c2oc(=O)ccc2C#Cc2cc(OC)c(OC)c(OC)c2)cc1O`, the GI50 in [1] is 11.6 µM; in [2] it was 13.8 µM; in [3] it was 3170 nM; in test [4], 50.5 µM; in test [5], 20.9 µM; in [6], above 100000 nM. For the same compound, the GI50 in test [7] was 15.7 µM; in [8], 2750 nM; in test [9], 30.7 µM; in test [10], 13.5 µM. In addition, the TGI is 44.3 µM in test [1]; above 100 µM in test [2]; above 100 µM in [3]; above 100 µM in test [4]; 70.6 µM in test [5]; above 100 µM in test [6]. The TGI in test [7] is 58.5 µM; in test [8], 33.5 µM; in test [9], above 100 µM; in [10], 50.6 µM.
Consider `COc1ccc(/C=C/c2c(C(=O)/C=C/c3ccc(Cl)cc3)c(C)nc3ccccc23)cc1`, for which the GI50 in test [1] is 1.55 µM; in [2], 2.19 µM; in test [3], 2000 nM; in [4], 1.8 µM; in test [5], 1.62 µM; in test [6], 2080 nM. Moreover, the GI50 in test [7] is 1.98 µM; in [8], 1370 nM; in test [9] it was 1.7 µM; in [10] it was 1.75 µM. Besides, the TGI is 2.97 µM in [1]; above 100 µM in test [2]; above 100 µM in [3]; 3.72 µM in test [4]; 3.19 µM in test [5]; 4.98 µM in test [6]. The TGI in test [7] was 4.56 µM; in [8] it was above 100 µM; in test [9], 5.72 µM; in test [10], 3.55 µM.
